Key:
Experiment in all cases: Field trial, post-emergence weed control
Type in all cases: in vivo
[1] = test system: Brassica napus (imidazolinone tolerant)
Procedure: (§1) Synergism of the combination is then determined by comparing the observed response of the combination to the expected (or predicted) response as calculated from the observed responses of each individual component alone. If the observed response of the combination is greater than the expected (or predicted) response then the combination is said to be synergistic and falls within the definition of synergistic effect as previously defined.
(§2) In similar manner for the case of three-way combination, C3; is composed of component X plus component Y plus […] and Obs. designates the observed response of the combination C3. [formula]
(§3) Grassy and broadleaved weeds are either seeded perpendicular to the direction of the crop or broadcast in early to mid-May. The crop is seeded after the weed seed. Row width is 18 cm. The seed is drilled in with a Roger's 1.8 m width drill to a depth of 5 cm.
(§4) All trials employ standard accepted weed science procedures. Applications are made with a Roger's CO2-powered shrouded sprayer. Test design is a modified randomized complete block design with four replications. All applications are made post-emergence to the weeds and crop.
(§5) The test solutions are prepared by tank-mixing sufficient quantities of aqueous solutions and/or dispersions of the test compounds.
(§6) The treated plots are examined at intervals during the growing season and rated for percent control of weeds and crop injury. The data listed is an average of the replicates for that treatment. The Colby method of analysis is used to determine the resultant biological effect of the combination treatment as compared to the biological effect of each component when applied alone.

[2] = test system: Stellaria media
Procedure: as §1, with “In the following examples, synergism for two-way combinations is determined by the Colby^1 method, i.e. the expected (or predicted) response of the combination is calculated by taking the product of the observed response for each individual component of the combination when applied alone divided by 100 and subtracting this value from the sum of the observed response for each component when applied alone. Synergism” for “Synergism”
as §2, §3, §4, §5, §6

[3] = test system: Brassica napus
Procedure: as §1, with “In the following examples, synergism for two-way combinations is determined by the Colby^1 method, i.e. the expected (or predicted) response of the combination is calculated by taking the product of the observed response for each individual component of the combination when applied alone divided by 100 and subtracting this value from the sum of the observed response for each component when applied alone. Synergism” for “Synergism”
as §2, §3, §4, §5, §6

[4] = test system: Kochia scoparia
Procedure: as §1, with “In the following examples, synergism for two-way combinations is determined by the Colby^1 method, i.e. the expected (or predicted) response of the combination is calculated by taking the product of the observed response for each individual component of the combination when applied alone divided by 100 and subtracting this value from the sum of the observed response for each component when applied alone. Synergism” for “Synergism”
as §2, §3, §4, §5, §6

[5] = test system: Avena fatua
Procedure: as §1, with “In the following examples, synergism for two-way combinations is determined by the Colby^1 method, i.e. the expected (or predicted) response of the combination is calculated by taking the product of the observed response for each individual component of the combination when applied alone divided by 100 and subtracting this value from the sum of the observed response for each component when applied alone. Synergism” for “Synergism”
as §2, §3, §4, §5, §6

[6] = test system: Polygonum (smartweed) spp.
Procedure: as §1, with “In the following examples, synergism for two-way combinations is determined by the Colby^1 method, i.e. the expected (or predicted) response of the combination is calculated by taking the product of the observed response for each individual component of the combination when applied alone divided by 100 and subtracting this value from the sum of the observed response for each component when applied alone. Synergism” for “Synergism”
as §2, §3, §4, §5, §6

[7] = test system: Vaccaria pyramaidata
Procedure: as §1, with “In the following examples, synergism for two-way combinations is determined by the Colby^1 method, i.e. the expected (or predicted) response of the combination is calculated by taking the product of the observed response for each individual component of the combination when applied alone divided by 100 and subtracting this value from the sum of the observed response for each component when applied alone. Synergism” for “Synergism”
as §2, §3, §4, §5, §6

[8] = test system: Galium aparine
Procedure: as §1, with “In the following examples, synergism for two-way combinations is determined by the Colby^1 method, i.e. the expected (or predicted) response of the combination is calculated by taking the product of the observed response for each individual component of the combination when applied alone divided by 100 and subtracting this value from the sum of the observed response for each component when applied alone. Synergism” for “Synergism”
as §2, §3, §4, §5, §6

[9] = test system: Sinapis arvensis
Procedure: as §1, with “In the following examples, synergism for two-way combinations is determined by the Colby^1 method, i.e. the expected (or predicted) response of the combination is calculated by taking the product of the observed response for each individual component of the combination when applied alone divided by 100 and subtracting this value from the sum of the observed response for each component when applied alone. Synergism” for “Synergism”
as §2, §3, §4, §5, §6

[10] = test system: Setaria viridis
Procedure: as §1, with “In the following examples, synergism for two-way combinations is determined by the Colby^1 method, i.e. the expected (or predicted) response of the combination is calculated by taking the product of the observed response for each individual component of the combination when applied alone divided by 100 and subtracting this value from the sum of the observed response for each component when applied alone. Synergism” for “Synergism”
as §2, §3, §4, §5, §6

[11] = test system: Galeopsis tetrahit
Procedure: as §1, with “In the following examples, synergism for two-way combinations is determined by the Colby^1 method, i.e. the expected (or predicted) response of the combination is calculated by taking the product of the observed response for each individual component of the combination when applied alone divided by 100 and subtracting this value from the sum of the observed response for each component when applied alone. Synergism” for “Synergism”
as §2, §3, §4, §5, §6

[12] = test system: Polygonum convolvulus
Procedure: as §1, with “In the following examples, synergism for two-way combinations is determined by the Colby^1 method, i.e. the expected (or predicted) response of the combination is calculated by taking the product of the observed response for each individual component of the combination when applied alone divided by 100 and subtracting this value from the sum of the observed response for each component when applied alone. Synergism” for “Synergism”
as §2, §3, §4, §5, §6

[13] = test system: Chenopodium album
Procedure: as §1, with “In the following examples, synergism for two-way combinations is determined by the Colby^1 method, i.e. the expected (or predicted) response of the combination is calculated by taking the product of the observed response for each individual component of the combination when applied alone divided by 100 and subtracting this value from the sum of the observed response for each component when applied alone. Synergism” for “Synergism”
as §2, §3, §4, §5, §6

[14] = test system: Salsola kali
Procedure: as §1, with “In the following examples, synergism for two-way combinations is determined by the Colby^1 method, i.e. the expected (or predicted) response of the combination is calculated by taking the product of the observed response for each individual component of the combination when applied alone divided by 100 and subtracting this value from the sum of the observed response for each component when applied alone. Synergism” for “Synergism”
as §2, §3, §4, §5, §6

[15] = test system: Amaranthus retroflexus
Procedure: as §1, with “In the following examples, synergism for two-way combinations is determined by the Colby^1 method, i.e. the expected (or predicted) response of the combination is calculated by taking the product of the observed response for each individual component of the combination when applied alone divided by 100 and subtracting this value from the sum of the observed response for each component when applied alone. Synergism” for “Synergism”
as §3, §4, §5, §6

O=C(O)COc1ccc(Cl)cc1Cl [2,4-D, 2,4-dichlorophenoxyacetic acid]
Percent Control ([1]; 280 g/ha): 94% | Percent Control ([2]; 280 g/ha): 10% | Percent Control ([3]; 280 g/ha): 93% | Percent Control ([4]; 280 g/ha): 52% | Percent Control ([5]; 280 g/ha): 2% | Percent Control ([6]; 280 g/ha): 53% | Percent Control ([7]; 280 g/ha): 51% | Percent Control ([8]; 280 g/ha): 43% | Percent Control ([9]; 280 g/ha): 92% | Percent Control ([10]; 280 g/ha): 0% | Percent Control ([11]; 280 g/ha): 2% | Percent Control ([12]; 280 g/ha): 48% | Percent Control ([13]; 280 g/ha): 91% | Percent Control ([14]; 280 g/ha): 35%

O=C(O)c1nc(Cl)ccc1Cl [clopyralid]
Percent Control ([1]; 150 g/ha): 8% | Percent Control ([2]; 150 g/ha): 10% | Percent Control ([3]; 150 g/ha): 12% | Percent Control ([8]; 150 g/ha): 0% | Percent Control ([9]; 150 g/ha): 16% | Percent Control ([13]; 150 g/ha): 51%

CCOC(=O)[C@@H](C)Oc1ccc(Oc2nc3ccc(Cl)cc3o2)cc1 [fenoxaprop-p-ethyl]
Percent Control ([15]; 72 g/ha): 9% | Percent Control ([1]; 72 g/ha): 0% | Percent Control ([3]; 72 g/ha): 0% | Percent Control ([7]; 72 g/ha): 0% | Percent Control ([9]; 72 g/ha): 0% | Percent Control ([10]; 72 g/ha): 98% | Percent Control ([12]; 72 g/ha): 0% | Percent Control ([13]; 72 g/ha): 0%

O=C(Nc1ccc(F)cc1)c1cccc(Oc2cccc(C(F)(F)F)c2)n1 [picolinafen]
Percent Control ([15]; 50 g/ha): 90% | Percent Control ([1]; 50 g/ha): 65% | Percent Control ([2]; 50 g/ha): 64% | Percent Control ([3]; 50 g/ha): 70% | Percent Control ([4]; 50 g/ha): 59% | Percent Control ([5]; 50 g/ha): 5% | Percent Control ([6]; 50 g/ha): 26% | Percent Control ([7]; 50 g/ha): 63% | Percent Control ([8]; 50 g/ha): 28% | Percent Control ([9]; 50 g/ha): 78% | Percent Control ([10]; 50 g/ha): 14% | Percent Control ([11]; 50 g/ha): 59% | Percent Control ([12]; 50 g/ha): 54% | Percent Control ([13]; 50 g/ha): 57% | Percent Control ([14]; 50 g/ha): 56%

CCO/N=C(\CC)C1=C(O)CC(c2c(C)cc(C)cc2C)CC1=O (centres unmarked) [tralkoxydim]
Percent Control ([15]; 200 g/ha): 1% | Percent Control ([1]; 200 g/ha): 0% | Percent Control ([3]; 200 g/ha): 0% | Percent Control ([5]; 200 g/ha): 97% | Percent Control ([7]; 200 g/ha): 0% | Percent Control ([9]; 200 g/ha): 0% | Percent Control ([12]; 200 g/ha): 0% | Percent Control ([13]; 200 g/ha): 0%

imazamethabenz methyl
Percent Control ([1]; 400 g/ha): 0% | Percent Control ([2]; 400 g/ha): 8% | Percent Control ([4]; 400 g/ha): 31% | Percent Control ([5]; 400 g/ha): 88% | Percent Control ([6]; 400 g/ha): 76% | Percent Control ([7]; 400 g/ha): 20% | Percent Control ([8]; 400 g/ha): 48% | Percent Control ([10]; 400 g/ha): 10% | Percent Control ([11]; 400 g/ha): 4% | Percent Control ([13]; 400 g/ha): 18% | Percent Control ([14]; 400 g/ha): 9%
